Experimental data taken from patent US20070202515A1, “Promac signature application” (PATHOLOGICA, LLC., priority 2005, published 2007).

Columns and labels:
[1] = system: subcutaneous T cell lymphoma; test: Phase I trial of CG-47: clinical response of lymphoma; assay type: in vivo, human
Description: As part of the clinical development of CG-47, Pathologica performed analysis on blood samples from a subset of patients currently enrolled in a Phase I trial of the safety of the investigational polyamine CG-47. The trial recruited patients who have failed conventional therapy for various lymphomas. The patients received increasing amounts of CG47 for 5 days every three weeks by infusion. The trial was a dose escalation trial in which the first 3 patients received the lowest dose, the next three a higher dose etc. One patient, a person with subcutaneous T cell lymphoma, received 4 doses of 50 mg/m^2 of CG-47 over a 12 week period. […] Relapse of the lymphoma then occurred and a final sample was obtained. Levels of CD14-16++macrophages and the LC5-CI values obtained from the baseline and various subsequent samples are presented in FIG. 10. At presentation the patient had elevated CD14-16% s (˜50%) and a strongly positive LC5-CI score (6.2). After the first cycle of CG-47 the patient entered a clinical remission of their cancer that lasted for the […] of CG-47. During their clinical remission both the CD14-16++ levels and the LC5-CI scores normalized. After the 4th cycle of CG-47 the patient experienced a relapse in their cancer and in the post relapse samples CD14-16++ levels were again elevated (50%) and their LC5-CI value had reverted to a positive score (12.9). […]

CD14-16++macrophages = test: Levels of CD14-16++ macrophages in patient blood by flow cytometry; assay type: in vivo, human; conditions: same patient
Description: FIG. 10: LC5-CI and Signature values in cutaneous T-cell lymphoma patient—the percent of CD14 cells also staining with antibodies to CD16 by flow cytometry (filled triangles) is plotted (left y axis) along with the LC5-CI (open triangles) determined for the same samples (right y axis). The samples include the baseline sample obtained prior to the administration of the first cycle of CG-47 (baseline, x axis), the samples obtained prior to the patient receiving the 2nd, 3rd, and 4th cycle of CG-47 (cy2, cy3, and cy4, respectively) and the final sample obtained when the patient experienced a relapse (ReLps).
As part of the clinical development of CG-47, Pathologica performed analysis on blood samples from a subset of patients currently enrolled in a Phase I trial of the safety of the investigational polyamine CG-47. The trial recruited patients who have failed conventional therapy for various lymphomas. The patients received increasing amounts of CG47 for 5 days every three weeks by infusion. The trial was a dose escalation trial in which the first 3 patients received the lowest dose, the next three a higher dose etc. One patient, a person with subcutaneous T cell lymphoma, received 4 doses of 50 mg/m^2 of CG-47 over a 12 week period. […] Relapse of the lymphoma then occurred and a final sample was obtained. […]

[2] = system: G1P3, GPR43, IFIT2, ORM1, TNFSF10; test: LC5-CI quantitative RT-PCR classification index on PBMCs; assay type: in vivo, human; conditions: same patient
Description: Aliquots of the RNA preparations were then RT-PCR amplified using quantitative real time methods employing a Light-Cycler^36. The signals obtained were normalized against the signal obtained with primers for β-actin according to the formula Ctactin−Ctgene=NSig where Ct=the threshold cycle for the indicated gene and NSig=the normalized signal.
Therefore, we constructed a “weighted voting” scheme using the methods described by Golub and co-workers^37 for 10 of the most promising primer sets. ALS and control patients were divided into training and test sets and the actin normalized signal for each sample with each primer set was determined as described above. Then the voting weights (modified Rs) were calculated using the test samples according to the formula Mod R=(Mean ALS−Mean CON)/(StDev ALS+StDev CON) calculated using 13 ALS samples & 11 controls.
Next the inflection point or the mid point between the ALS and control samples is calculated according to MID=(MeanALS+MeanCON)/2
Then the signal for the individual primer (ICV) is calculated according to ICV=Mod R(Mean NSig−Mid)
The predictive power of the various primers was then evaluated using the test set of samples. […]

cancer = conditions: response not universal; cited from earlier work
[3] = ALS patients; cited from earlier work

CCNCCCNC/C=C\CNCCCNCC.Cl.Cl.Cl.Cl [CG-47]
duration of remission ([1]; began after administration of the first dose, 50 mg/m^2, same patient): approximately 10 weeks | clinical response of lymphoma ([1]; one patient, 4 doses of 50 mg/m^2 over a 12 week period by infusion): very significant remission | CD14-16++ levels in post relapse samples (CD14-16++macrophages; relapse after the 4th cycle): 50% | CD14-16++ levels during clinical remission (CD14-16++macrophages; at presentation elevated (~50%)): normalized | LC5-CI value in post relapse samples ([2]; relapse after the 4th cycle): 12.9 | LC5-CI scores during clinical remission ([2]; at presentation strongly positive (6.2)): normalized

C/C(=N\N=C(N)N)c1cc(NC(=O)CCCCCCCCC(=O)Nc2cc(/C(C)=N/N=C(N)N)cc(/C(C)=N/N=C(N)N)c2)cc(/C(C)=N/N=C(N)N)c1.Cl.Cl.Cl.Cl [CNI-1493]
efficacy against cancer in clinical trials (cancer): some level of efficacy against cancer

Nc1nc2ccc(OC(F)(F)F)cc2s1 [Riluzole]
effect on disease progression [3]: only modest slowing of disease progression

CC(C=NNC(=N)N)=NNC(=N)N.Cl.Cl.O [MGBG, Methylglyoxal bis(guanylhydrazone) dihydrochloride hydrate]
efficacy against cancer in clinical trials (cancer): some level of efficacy against cancer
